Data taken from patent US12678509B2, “Inhibitor of apoptosis (IAP) protein antagonists” (Sanford Burnham Prebys Medical Discovery Institute, priority 2019, dated 2026).

Experiments:
NB-4 = assay: Cell viability (CellTiter-Glo); format: cell-based, Human; conditions: Homo sapiens, NB-4, 72 h, read-out: NB-4 Viability 72 h IC50
MOLM 13 = assay: Cell viability (CellTiter-Glo), 6-day compound treatment; format: cell-based, Human; conditions: Homo sapiens, MOLM-13, 144 h, read-out: MOLM 13 Viability 6 d IC50
Summary of the method: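 Cells plated at 1700 per well, left overnight at 37° C./5% CO2, then exposed to 10-fold compound dilutions for 6 days […]. Viability by CellTiter-Glo luminescence; IC50 from nonlinear regression fit.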

SKOV-3 = assay: Cell viability (CellTiter-Glo), 48 hrs; format: cell-based; conditions: Homo sapiens, SK-OV-3, 48 h, read-out: SKOV-3 Viability 48 h IC50
BIR3 domain of XIAP = BIR3 domain of XIAP (Homo sapiens, UniProt P98170); assay: Fluorescence polarization assay; format: binding; conditions: SMAC-FITC probe, Ki calculated from IC50
Chain of BIR3 domain of XIAP (P98170 241-356 limits assumed): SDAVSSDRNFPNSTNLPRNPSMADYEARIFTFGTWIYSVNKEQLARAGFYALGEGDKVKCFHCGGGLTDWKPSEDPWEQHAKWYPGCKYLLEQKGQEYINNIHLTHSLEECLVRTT
Summary of the method: (§1)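 Competitive FP with 50 nM SMAC-FITC probe in 100 mM KH2PO4 pH 7.5, 50 μM ZnSO4, 1 mM TCEP; cIAP1 and XIAP at 800 nM, cIAP2 and ML-IAP at 1.5 μM. Compounds 30 μM to 1.5 nM in 3-fold steps; ex 485/em 535 nm. IC50 by nonlinear fit, converted to Ki via Nikolovska-Coleska equation.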

BIR3 domain of cIAP1 = BIR3 domain of cIAP1 (Homo sapiens, UniProt Q13490); assay: Fluorescence polarization assay; format: binding; conditions: SMAC-FITC probe, Ki calculated from IC50
Chain of BIR3 domain of cIAP1 (Q13490 253-363 limits assumed): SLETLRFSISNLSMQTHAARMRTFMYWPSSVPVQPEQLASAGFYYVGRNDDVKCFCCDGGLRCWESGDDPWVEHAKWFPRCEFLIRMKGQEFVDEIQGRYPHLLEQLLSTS
Summary of the method: as §1

BIR3 domain of cIAP2 = BIR3 domain of cIAP2 (Homo sapiens, UniProt Q13489); assay: Fluorescence polarization assay; format: binding; conditions: SMAC-FITC probe, Ki calculated from IC50
Chain of BIR3 domain of cIAP2 (Q13489 238-349 limits assumed): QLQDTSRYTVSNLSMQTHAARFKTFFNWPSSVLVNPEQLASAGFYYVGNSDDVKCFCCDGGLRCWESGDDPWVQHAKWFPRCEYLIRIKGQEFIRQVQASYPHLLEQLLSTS
Summary of the method: as §1

ML-IAP = biological target: T1, ML-IAP (Homo sapiens, UniProt Q96CA5); assay: Fluorescence polarization assay; format: binding; conditions: SMAC-FITC probe, Ki calculated from IC50
T1 sequence (Q96CA5 1-298): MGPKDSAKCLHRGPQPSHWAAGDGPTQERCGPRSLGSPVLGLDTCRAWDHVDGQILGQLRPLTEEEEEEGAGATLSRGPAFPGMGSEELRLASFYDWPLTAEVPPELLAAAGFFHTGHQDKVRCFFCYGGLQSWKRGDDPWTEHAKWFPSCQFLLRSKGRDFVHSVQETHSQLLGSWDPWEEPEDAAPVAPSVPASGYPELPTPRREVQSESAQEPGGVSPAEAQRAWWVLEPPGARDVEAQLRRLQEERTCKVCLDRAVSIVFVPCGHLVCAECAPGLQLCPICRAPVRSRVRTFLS
Summary of the method: as §1

AML-SH-065 = assay: Cell viability in patient derived AML samples (CellTiterGlo, 72 h); format: cell-based, human; conditions: for IC50: Homo sapiens, 72 h, read-out: AML-SH-065 IC50; for AML-SH-065 Efficacy: patient derived AML sample AML-SH-065, 72 h, cell viability at max. concentration
Method: (§2) Patient AML samples were gathered (under IRB 13-6180) from Scripps MD Anderson, La Jolla, CA Fresh blood samples were subjected to gradient density centrifugation with Ficoll-Paque™ PLUS (17-1440-02, GE Healthcare) and peripheral blood mononuclear cells purified as per manufacturer's protocol.
(§3) 75 nL of 1000× serially diluted IAP inhibitors were spotted in triplicate onto 384-well tissue culture treated plates (Greiner) using a Labcyte Echo acoustic dispensing device. Patient-derived AML cells were maintained in mTeSR1^+1× supplements (Stemcell Technologies) and penicillin/streptomycin/L-glutamine (Omega Scientific Inc.) and Fungizone (HyClone). 25 μL of cell dilution were plated into 384-well plate containing the drugs and incubated for 72 h. Cell viability was assessed by adding 25 μL CellTiterGlo (Promega Corp.) on a Synergy 2 plate reader with Gen5 software (Biotek). % viability was calculated by normalizing luminescence to vehicle only controls (DMSO) in Microsoft Excel and plotted using GraphPad Prism 8. The IC50 values were calculated using log(inhibitor) vs. response—Variable slope (four parameters) equation. (FIG. 6)

AML-SH-074 = assay: as above; format: cell-based, human; conditions: for IC50: Homo sapiens, 72 h, read-out: AML-SH-074 IC50; for AML-SH-074 Efficacy: patient derived AML sample AML-SH-074, 72 h, cell viability at max. concentration
Method: as §2, §3

AML-SH-075 = assay: as above; format: cell-based, human; conditions: for IC50: Homo sapiens, 72 h, read-out: AML-SH-075 IC50; for AML-SH-075 Efficacy: patient derived AML sample AML-SH-075, 72 h, cell viability at max. concentration
Method: as §2, §3

[1] = tested on: latently infected cell line Jurkat 2D10; assay: HIV Jurkat 2D10 cells GFP+ assay (reversal of HIV latency); format: cell-based; conditions: Homo sapiens, Jurkat, 48 h, read-out: Jurkat 2D10 GFP+ EC50
Summary of the method: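 Jurkat 2D10 cells exposed to graded doses of test compounds or IAP antagonists (BV-6, SM-164, Birinapant, LCL-161, GDC-0152, AT-406) for 48 hours. GFP expression quantified by flow cytometry. Induction expressed relative to baseline GFP in untreated cells.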

[2] = Pharmacokinetic study in mice, snapshot PK; format: in vivo; conditions: female, C57BL/6J, mouse, plasma, ip, one hour after i.p. injection of 10 mg/kg
Method: (§4) All animal procedures were approved by the Sanford Burnham Prebys Medical Discovery Institute Institutional Animal Care and Use Committee and were performed according to the NIH guidelines for the Care and Use of Laboratory Animals. Adult female C57BL/6J were purchased from JAX laboratories and housed with free access to food and water on a 12 h light/dark cycle. Compounds were formulated in 5% DMSO, 10% Tween-80, and 85% dH2O and injected intraperitoneally (i.p.) into mice at doses of 10 mg/kg. For snapshot PK analysis, blood samples were collected retro-orbitally one hour after injection and for the time course PK study, blood samples were collected at 15 min, 30 min, 1 h, 2 h, 4 h, 6 h, 24 h time points. For the blood samples plasma was separated by centrifugation. Plasma samples were extracted with acetonitrile:water 4:1 with 0.1% formic acid containing indometacin as an internal standard. Samples were centrifuged and supernatants were diluted with acetonitrile:water and analyzed via LC-MS/MS on a Shimadzu Nexera X2 HPLC coupled to an AB Sciex 6500 QTRAP.
Plasma exposure of selected compounds at 1 h compared.
Plasma levels of parent compound determined one hour after i.p. injection of 10 mg/kg

[3] = Pharmacokinetic study in mice, time course PK; format: in vivo; conditions: female, C57BL/6J, mouse, IP dose 10 mg/kg, plasma
Method: as §4
In vivo pharmacokinetic data for compound 18m in mice. Compound was formulated in 5% DMSO, 10% Tween 80 and water and administered by intraperitoneal injection.

Row | SMILES | IC50 (NB-4) | IC50 (MOLM 13) | IC50 (SKOV-3) | Ki (BIR3 domain of XIAP) | Ki (BIR3 domain of cIAP1) | Ki (BIR3 domain of cIAP2) | Ki (ML-IAP) | IC50 (AML-SH-065) | AML-SH-065 Efficacy (AML-SH-065) | IC50 (AML-SH-074) | AML-SH-074 Efficacy (AML-SH-074) | IC50 (AML-SH-075) | AML-SH-075 Efficacy (AML-SH-075) | EC50 [1] | concentration at 1 h [2] | AUC(0-t) [3] | Cmax [3] | Tmax [3] | half-life ([3]; terminal half-life)
1 | CN[C@@H](C)C(=O)N[C@H]1CCS[C@H]2CC(C)(C)[C@@H](C(=O)N[C@H]3c4ccccc4C[C@H]3OCc3ccc(CO[C@@H]4Cc5ccccc5[C@@H]4NC(=O)[C@H]4N5C(=O)[C@@H](NC(=O)[C@H](C)NC)CCS[C@H]5CC4(C)C)cc3)N2C1=O [Compound 18g, (2S)-1-{[(4S,7S,9aS)-7-{[(1S,2R)-2-{[4-({[(1S,2R)-1-({[(4S,7S,9aS)-8,8-Dimethyl-4-{[(2S)-2-(methylammonio)propanoyl]amino}-5-oxooctahydropyrrolo[2,1-b][1,3]thiazepin-7-yl]carbonyl}amino)-2,3-dihydro-1H-inden-2-yl]oxy}methyl)benzyl]oxy}-2,3-dihydro-1H-inden-1-yl]carbamoyl}-8,8-dimethyl-5-oxooctahydropyrrolo[2,1-b][1,3]thiazepin-4-yl]amino}-N-methyl-1-oxopropan-2-ammonium dichloride] | < 10 nM | 10 to 100 nM | < 10 nM | ≤ 50 nM | ≤ 50 nM | 50 to 100 nM | 50 to 100 nM | 10 to 100 nM | I (I < 10%) | 100 to 1000 nM | I (I < 10%) | 10 to 100 nM | I (I < 10%) | 1 to 10 nM | 2.69 µM | – | – | – | –
2 | CC[C@H](NC)C(=O)N[C@H]1CCS[C@H]2CC(C)(C)[C@@H](C(=O)N[C@H]3c4ccccc4C[C@H]3OCC#CC#CCO[C@@H]3Cc4ccccc4[C@@H]3NC(=O)[C@H]3N4C(=O)[C@@H](NC(=O)[C@H](CC)NC)CCS[C@H]4CC3(C)C)N2C1=O [Compound 18m, [(1S)-1-{[(4S,7S,9aS)-7-{[(1S,2R)-2-[(6-{[(1S,2R)-1-[(4S,7S,9aS)-8,8-Dimethyl-4-[(2S)-2-(methylazaniumyl)butanamido]-5-oxo-octahydropyrrolo[2,1-b][1,3]thiazepine-7-amido]-2,3-dihydro-1H-inden-2-yl]oxy}hexa-2,4-diyn-1-yl)oxy]-2,3-dihydro-1H-inden-1-yl]carbamoyl}-8,8-dimethyl-5-oxo-octahydropyrrolo[2,1-b][1,3]thiazepin-4-yl]carbamoyl}propyl](methyl)azanium dichloride] | – | 10 to 100 nM | < 10 nM | ≤ 50 nM | ≤ 50 nM | 50 to 100 nM | 50 to 100 nM | < 10 nM | I (I < 10%) | 100 to 1000 nM | I (I < 10%) | 10 to 100 nM | I (I < 10%) | 1 to 10 nM | 6.59 µM | 18.1 µM·h | 6.6 µM | 1 h | 3 h
